Source: ChEMBL document CHEMBL5724914, “Linking interpersonal differences in gut microbiota composition and drug biotransformation activity” (2024)

What was measured:
[1] = human gut metagenome, 24 h, 2 µM
[2] = The drug is tested on Z-028 corresponding to mouse gut metagenome with ENA study accession number: PRJEB37062 and ENA sample accession number: ERS12561827 for biotransformation under anaerobic condition. The drug concentrations were measured over 9 timepoints collected between 0 and 24 hours of incubation by liquid-chromatography-coupled mass spectrometry (LC–MS); details: 2 µM
[3] = human gut metagenome, 24 h, 2 µM; remark: listed apart in the source
[4] = The drug is tested on Z-016 corresponding to mouse gut metagenome with ENA study accession number: PRJEB37062 and ENA sample accession number: ERS12561815 for biotransformation under anaerobic condition. The drug concentrations were measured over 9 timepoints collected between 0 and 24 hours of incubation by liquid-chromatography-coupled mass spectrometry (LC–MS); details: 2 µM
[5] = The drug is tested on WLS-310 corresponding to human gut metagenome with ENA study accession number: PRJEB37062 and ENA sample accession number: ERS12561785 for biotransformation under anaerobic condition. The drug concentrations were measured over 9 timepoints collected between 0 and 24 hours of incubation by liquid-chromatography-coupled mass spectrometry (LC–MS); details: 2 µM
[6] = The drug is tested on WLS-007 corresponding to human gut metagenome with ENA study accession number: PRJEB37062 and ENA sample accession number: ERS12561742 for biotransformation under anaerobic condition. The drug concentrations were measured over 9 timepoints collected between 0 and 24 hours of incubation by liquid-chromatography-coupled mass spectrometry (LC–MS); details: 2 µM
[7] = human gut metagenome, 24 h, 2 µM; remark: listed apart in the source
[8] = human gut metagenome, 24 h, 2 µM; remark: listed apart in the source
[9] = The drug is tested on Z-026 corresponding to metagenome with ENA study accession number: PRJEB37062 and ENA sample accession number: ERS12561825 for biotransformation under anaerobic condition. The drug concentrations were measured over 9 timepoints collected between 0 and 24 hours of incubation by liquid-chromatography-coupled mass spectrometry (LC–MS); details: 2 µM
[10] = human gut metagenome, 24 h, 2 µM; remark: listed apart in the source
[11] = The drug is tested on Z-014 corresponding to rat gut metagenome with ENA study accession number: PRJEB37062 and ENA sample accession number: ERS12561814 for biotransformation under anaerobic condition. The drug concentrations were measured over 9 timepoints collected between 0 and 24 hours of incubation by liquid-chromatography-coupled mass spectrometry (LC–MS); details: 2 µM
[12] = The drug is tested on WLS-010 corresponding to human gut metagenome with ENA study accession number: PRJEB37062 and ENA sample accession number: ERS12561743 for biotransformation under anaerobic condition. The drug concentrations were measured over 9 timepoints collected between 0 and 24 hours of incubation by liquid-chromatography-coupled mass spectrometry (LC–MS); details: 2 µM
[13] = The drug is tested on Z-008 corresponding to metagenome with ENA study accession number: PRJEB37062 and ENA sample accession number: ERS12561808 for biotransformation under anaerobic condition. The drug concentrations were measured over 9 timepoints collected between 0 and 24 hours of incubation by liquid-chromatography-coupled mass spectrometry (LC–MS); details: 2 µM
[14] = The drug is tested on Z-029 corresponding to rat gut metagenome with ENA study accession number: PRJEB37062 and ENA sample accession number: ERS12561828 for biotransformation under anaerobic condition. The drug concentrations were measured over 9 timepoints collected between 0 and 24 hours of incubation by liquid-chromatography-coupled mass spectrometry (LC–MS); details: 2 µM
[15] = The drug is tested on Z-001 corresponding to mouse gut metagenome with ENA study accession number: PRJEB37062 and ENA sample accession number: ERS12561801 for biotransformation under anaerobic condition. The drug concentrations were measured over 9 timepoints collected between 0 and 24 hours of incubation by liquid-chromatography-coupled mass spectrometry (LC–MS); details: 2 µM
[16] = human gut metagenome, 24 h, 2 µM; remark: listed apart in the source
[17] = The drug is tested on Z-019 corresponding to rat gut metagenome with ENA study accession number: PRJEB37062 and ENA sample accession number: ERS12561818 for biotransformation under anaerobic condition. The drug concentrations were measured over 9 timepoints collected between 0 and 24 hours of incubation by liquid-chromatography-coupled mass spectrometry (LC–MS); details: 2 µM
[18] = human gut metagenome, 24 h, 2 µM; remark: listed apart in the source
[19] = The drug is tested on Z-017 corresponding to mouse gut metagenome with ENA study accession number: PRJEB37062 and ENA sample accession number: ERS12561816 for biotransformation under anaerobic condition. The drug concentrations were measured over 9 timepoints collected between 0 and 24 hours of incubation by liquid-chromatography-coupled mass spectrometry (LC–MS); details: 2 µM
[20] = human gut metagenome, 24 h, 2 µM; remark: listed apart in the source
Further: call rule not given here.

Row | Bacterial Biotransformation [1] | Bacterial Biotransformation [2] | Bacterial Biotransformation [3] | Bacterial Biotransformation [4] | Bacterial Biotransformation [5] | Bacterial Biotransformation [6] | Bacterial Biotransformation [7] | Bacterial Biotransformation [8] | Bacterial Biotransformation [9] | Bacterial Biotransformation [10] | Bacterial Biotransformation [11] | Bacterial Biotransformation [12] | Bacterial Biotransformation [13] | Bacterial Biotransformation [14] | Bacterial Biotransformation [15] | Bacterial Biotransformation [16] | Bacterial Biotransformation [17] | Bacterial Biotransformation [18] | Bacterial Biotransformation [19] | Bacterial Biotransformation [20] | Structure (SMILES)
1 | Compound metabolized | Compound metabolized | Compound metabolized | Compound NOT metabolized | Compound metabolized | Compound metabolized | Compound metabolized | Compound metabolized | Compound metabolized | Compound metabolized | Compound NOT metabolized | Compound metabolized | Compound metabolized | Compound NOT metabolized |  |  |  |  |  |  | C#C[C@]1(O)CC[C@H]2[C@@H]3CCC4=Cc5oncc5C[C@]4(C)[C@H]3CC[C@@]21C [DANAZOL]
2 | Compound NOT metabolized | Compound NOT metabolized | Compound NOT metabolized | Compound NOT metabolized | Compound NOT metabolized | Compound NOT metabolized | Compound NOT metabolized | Compound NOT metabolized | Compound NOT metabolized | Compound NOT metabolized | Compound NOT metabolized | Compound NOT metabolized | Compound NOT metabolized |  | Compound NOT metabolized | Compound NOT metabolized | Compound NOT metabolized | Compound NOT metabolized | Compound NOT metabolized | Compound NOT metabolized | CN1C(=O)CC(C)(c2ccccc2)C1=O (stereo unspecified) [METHSUXIMIDE]
3 | Compound metabolized | Compound NOT metabolized | Compound metabolized | Compound NOT metabolized | Compound metabolized | Compound NOT metabolized | Compound metabolized | Compound metabolized | Compound NOT metabolized | Compound metabolized | Compound NOT metabolized | Compound NOT metabolized | Compound NOT metabolized | Compound NOT metabolized | Compound NOT metabolized | Compound NOT metabolized |  | Compound metabolized |  | Compound NOT metabolized | CNC(=C[N+](=O)[O-])NCCSCc1csc(CN(C)C)n1 [NIZATIDINE]
